Results taken from US11524040B2, “Composition for the treatment of acne” (priority 2020, dated 2022).

Key:
Interleukin-6 (IL-6) = assay: Interleukin-6 expression in keratinocytes; format: cell-based, human; conditions: 24-hour treatment, CBD isolate at same concentration as present in the invention
Method: (§1) In a study using human primary keratinocytes, two formulations were analyzed, Natural Blemish Light Lotion (NB) and Natural Blemish OTC Lotion (OTC) for unique properties. All the following experiments include a 24-hour treatment of the finished products used in the dilutions shown and were analyzed by quantitative polymerase chain reaction (qPCR).
Interleukin-6 (IL-6) is a well-established marker for inflammation. Largely produced in the skin by keratinocytes, its production leads to the activation of the STAT3 pathway which has been linked to the pathogenesis of many inflammatory skin diseases (Activation of Janus kinase signaling pathway in acne lesions, Sara Mohamed Awad, Yasmin Mostafa Tawfik, Mohamed Ahmed El-Mokhtar, Amira F. El-Gazzar, Amira Ali Abdel Motaleb First published: 19 Nov. 2020 https://doi.org/10.1111/dth.14563). In addition, IL-6 exerts stimulatory effects on T-cells and B-cells, thus favoring chronic inflammatory responses. (Gabay C. Interleukin-6 and chronic inflammation. Arthritis Res Ther. 2006; 8 Suppl 2(Suppl 2):S3. doi:10.1186/ar1917). […] That is, the compositions work better to reduce expression of IL-6 than the individual ingredients, namely CBD alone.

[1] = test system: Tumor necrosis factor (TNF-α); assay: TNF-α production in human primary sebocytes; format: cell-based; conditions: human primary sebocytes in vitro; CBD isolate at same concentration as present in the invention
Method: as §1
(§2) Because sebum production is a major factor in the pathophysiology of acne vulgaris, experiments were performed using human primary sebocytes isolated from the eye area. The main function of sebocytes is considered to be the production of lipids to moisturize the skin. However, it recently became apparent that sebocytes release chemokines and cytokines and respond to proinflammatory stimuli as well as the presence of bacteria. (Attii M, Lovászi M, Garzorz N, Atenhan A, Quaranta M, Lauffer F, Konstantinow A, Küpper M, Zouboulis C C, Kemeny L, Eyerich K, Schmidt-Weber C B, Töröcsik D, Eyerich S. Sebocytes contribute to skin inflammation by promoting the differentiation of T helper 17 cells. Br J Dermatol. 2018 March; 178(3):722-730. doi: 10.1111/bjd.15879. Epub 2018 Jan. 9. PMID: 28799643). The overproduction of sebum, proinflammatory chemokines and cytokines released from sebocytes all contribute to the formation of comedones on the skin. Both OTC and NB were studied as well as AP to investigate the efficacy of these products. […]

Fox-01 = assay: FOX-01 expression in human primary sebocytes; format: cell-based; conditions: 100 ug/mL
Method: as §1, §2

## C=C(C)[C@@H]1CCC(C)=C[C@H]1c1c(O)cc(CCCCC)cc1O [CBD isolate, Cannabidiol]
Interleukin-6 (IL-6)
  reduction of expression of IL-6: 6.0%
[1]
  lowered production of TNF-α: 14.0%
Fox-01
  increase of Fox-01 expression: 50.8%
